Results: patent publication US9566312B2, “Cyclic peptides and use as medicines” (priority 2012, dated 2017)
Like-named read-outs stand apart in the source and are kept apart here. Starred links: 1 amine or outer side, 2 acyl side, 3 side chain; linkers in the order of their positions; H or OH if unused. Non-standard residues stand in square brackets, D forms with d. Residues, ends and D or L forms follow the SMILES beside them. X58 = C[C@H](COCCN1CCN(C2CCC2)CC1)[C@@H](C(=O)[*:2])N(C)[*:1]; X12 = C[C@@H](CN1CCN(C2CCC2)CC1)[C@@H](C(=O)[*:2])N(C)[*:1]; X6 = C[C@@H](CN1CCN(C2COC2)CC1)[C@@H](C(=O)[*:2])N(C)[*:1]; X19 = COCCN1CCN(C[C@H](C)[C@@H](C(=O)[*:2])N(C)[*:1])CC1; NMe(dihydroBmt) = CCCC[C@@H](C)[C@@H](O)[C@H](NC)C(=O)O; X23 = COC1CN(C[C@@H](C)[C@@H](C(=O)[*:2])N(C)[*:1])C1; X20 = C[C@H](CCCN1CCOCC1)[C@@H](C(=O)[*:2])N(C)[*:1]; X9 = C[C@@H](CN1CCOCC1)[C@@H](C(=O)[*:2])N(C)[*:1]; MeBmt = C/C=C/C[C@@H](C)[C@@H](O)[C@H](NC)C(=O)O; X13 = C[C@H](CC#N)[C@@H](C(=O)[*:2])N(C)[*:1]; X24 = C[C@H](CO)[C@@H](C(=O)[*:2])N(C)[*:1]; NMeL = CN[C@@H](CC(C)C)C(=O)O; NMeV = CN[C@H](C(=O)O)C(C)C; dNMeA = CN[C@H](C)C(=O)O; Abu = CC[C@H](N)C(=O)O

Tests used:
cyclophilin A (CypA) = cyclophilin A (CypA) (Homo sapiens (Human), UniProt P62937); test: Inhibitor binding to cyclophilin proteins by SPR, CypA; set-up: unit not given here; details: 1:1 binding model;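 further: Single-cycle kinetics on a Biacore T200, compound injected at several concentrations for 1 min each at 50 µL/min, then 10 min dissociation, in HEPES pH 7.4 buffer with 3% DMSO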
cyclophilin A (CypA), sequence (P62937 whole entry): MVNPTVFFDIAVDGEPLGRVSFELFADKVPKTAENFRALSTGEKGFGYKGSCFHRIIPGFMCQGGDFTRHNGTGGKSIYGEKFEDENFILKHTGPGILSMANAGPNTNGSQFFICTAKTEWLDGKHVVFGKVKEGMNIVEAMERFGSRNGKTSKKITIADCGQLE

cyclophilin B (CypB) = cyclophilin B (CypB) (Homo sapiens (Human), UniProt P23284); test: Inhibitor binding to cyclophilin proteins by SPR, CypB; set-up: unit not given here; details: 1:1 binding model
cyclophilin B (CypB), sequence (P23284 34-216): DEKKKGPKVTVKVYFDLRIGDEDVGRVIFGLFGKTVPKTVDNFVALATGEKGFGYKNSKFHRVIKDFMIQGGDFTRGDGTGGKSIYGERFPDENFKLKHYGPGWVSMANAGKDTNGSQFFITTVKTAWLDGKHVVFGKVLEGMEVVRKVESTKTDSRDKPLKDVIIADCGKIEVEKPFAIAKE
Outline: (§1)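 Mono-biotinylated avi-tagged cyclophilins were captured on a Biotin CAPture chip and compound injected by single-cycle kinetics in 10 mM HEPES pH 7.4, 150 mM NaCl, 0.05% P20, 3% DMSO. Contact 1 min per concentration at 50 μL/min, 10 min final dissociation; 1:1 model fit gave kon, koff, KD.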

CypF = CypF (Homo sapiens (Human), UniProt P30405); test: Inhibitor binding to cyclophilin proteins by SPR, CypF; details: 1:1 binding model
CypF, sequence (P30405 30-207): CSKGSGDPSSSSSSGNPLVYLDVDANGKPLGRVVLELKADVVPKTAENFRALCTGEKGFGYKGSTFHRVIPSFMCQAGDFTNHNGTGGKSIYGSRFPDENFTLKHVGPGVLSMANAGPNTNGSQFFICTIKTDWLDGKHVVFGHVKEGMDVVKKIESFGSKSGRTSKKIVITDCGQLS
Outline: as §1

[1] = system: genotype 1b subgenomic HCV replicon in Huh7.5 cells; assay type: cell-based, hepatitis C virus; details: read-out: RPLN-1b IC50
Outline: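 Replicon inhibition read as renilla luciferase signal versus DMSO controls after 72 h incubation, in Huh7.5 cells harbouring a genotype 1b subgenomic replicon; medium phenol red-free DMEM lacking G418. CC50 determined in parallel via Cell Titer-Glo.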

[2] = system: peripheral blood mononuclear cells (PBMC); test: Anti-proliferative or immunosuppressive activity, BrdU incorporation in PHA-stimulated PBMC; assay type: cell-based; details: PHA 3 μg/ml, 60 hour compound treatment; read-out: EMV PBMC IC50
Outline: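 BrdU ELISA read-out of DNA synthesis in freshly isolated PBMCs (two donors, 30,000 cells/well, X-VIVO 15). T-cell proliferation triggered with phytohemagglutinin at 3 μg/ml.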

[3] = molecular target: organic anion transporting polypeptide 1B1 (OATP1B1) (Homo sapiens (Human), UniProt Q9Y6L6); test: OATP assay in CHO-OATP1B1 cells;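 further: inhibition of probe substrate uptake into the cells, ten minutes exposure, accumulated substrate read by fluorescence once cells were lysed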
organic anion transporting polypeptide 1B1 (OATP1B1), sequence (Q9Y6L6 whole entry): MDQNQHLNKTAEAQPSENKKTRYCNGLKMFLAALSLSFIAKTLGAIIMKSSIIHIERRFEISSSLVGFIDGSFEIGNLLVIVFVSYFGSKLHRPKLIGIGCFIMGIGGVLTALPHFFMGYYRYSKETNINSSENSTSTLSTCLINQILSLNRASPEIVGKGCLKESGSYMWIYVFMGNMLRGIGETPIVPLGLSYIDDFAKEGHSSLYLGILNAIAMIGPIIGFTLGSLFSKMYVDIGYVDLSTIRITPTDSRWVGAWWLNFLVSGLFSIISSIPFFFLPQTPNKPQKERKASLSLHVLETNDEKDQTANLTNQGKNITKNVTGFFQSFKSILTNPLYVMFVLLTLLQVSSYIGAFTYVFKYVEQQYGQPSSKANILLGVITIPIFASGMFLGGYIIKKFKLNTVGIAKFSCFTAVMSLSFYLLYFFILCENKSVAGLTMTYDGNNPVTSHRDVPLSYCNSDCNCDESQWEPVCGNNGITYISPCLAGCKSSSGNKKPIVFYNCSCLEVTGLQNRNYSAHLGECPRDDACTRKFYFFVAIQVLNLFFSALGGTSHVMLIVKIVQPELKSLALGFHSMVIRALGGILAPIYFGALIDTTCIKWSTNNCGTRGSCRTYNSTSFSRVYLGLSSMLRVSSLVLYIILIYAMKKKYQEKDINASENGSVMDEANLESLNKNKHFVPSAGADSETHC

CYP3A4 = CYP3A4 (Homo sapiens (Human), UniProt P08684); test: Time-dependent inhibition of CYP3A4;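 further: Two-step in vitro assay, kobs derived from residual CYP3A4 activity versus preincubation time per concentration, then kinact and KI by nonlinear fit of kobs against concentration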
CYP3A4, sequence (P08684 whole entry): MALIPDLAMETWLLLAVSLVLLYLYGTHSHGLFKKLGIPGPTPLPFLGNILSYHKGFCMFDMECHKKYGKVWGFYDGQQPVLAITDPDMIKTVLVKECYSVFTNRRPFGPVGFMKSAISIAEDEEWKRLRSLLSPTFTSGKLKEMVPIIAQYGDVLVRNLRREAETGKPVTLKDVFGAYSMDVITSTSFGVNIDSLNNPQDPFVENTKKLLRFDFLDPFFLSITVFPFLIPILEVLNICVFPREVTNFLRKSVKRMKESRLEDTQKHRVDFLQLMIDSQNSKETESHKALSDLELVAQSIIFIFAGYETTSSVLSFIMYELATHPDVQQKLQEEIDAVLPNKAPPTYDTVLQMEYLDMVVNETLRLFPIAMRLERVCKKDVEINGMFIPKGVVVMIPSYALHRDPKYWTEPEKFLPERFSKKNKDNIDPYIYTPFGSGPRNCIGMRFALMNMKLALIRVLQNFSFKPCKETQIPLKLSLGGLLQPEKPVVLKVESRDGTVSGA

[4] = genotype 1b replicon, 72 h incubation

| Structure (SMILES) | CypA Kd (cyclophilin A (CypA)) | CypB Kd (cyclophilin B (CypB)) | CypF Kd (CypF) | IC50 [1, 4] | IC50 [2] | IC50 [3] | Ki (CYP3A4) | IC50 [1] | NIM TDI kinact/Ki (CYP3A4; probe substrate midazolam) | NIM TDI, result in words (CYP3A4; probe substrate midazolam) |
| --- | --- | --- | --- | --- | --- | --- | --- | --- | --- | --- |
| C/C=C/C[C@@H](C)[C@@H](O)[C@H]1C(=O)N[C@@H](CC)C(=O)N(C)[C@H](C)C(=O)N(C)[C@@H]([C@@H](C)CN2CCOCC2)C(=O)N[C@@H](C(C)C)C(=O)N(C)[C@@H](CC(C)C)C(=O)N[C@@H](C)C(=O)N[C@H](C)C(=O)N(C)[C@@H](CC(C)C)C(=O)N(C)[C@@H](CC(C)C)C(=O)N(C)[C@@H](C(C)C)C(=O)N1C [Compound 2.17.1, 3-[D-Ala]-4[(2S,3S)-2-Amino-3-methyl-4-morpholin-4-yl-butanoyl]-cyclosporin] (cyclo(A[dA][NMeL][NMeL][NMeV][MeBmt][Abu][dNMeA][X9]V[NMeL])) | 0.6 | 0.4 | 0.0003 µM | 0.029 µM | 18 µM | 3.6 µM | > 50 µM |  |  |  |
| CCCC[C@@H](C)[C@@H](O)[C@H]1C(=O)N[C@@H](CC)C(=O)N(C)[C@H](C)C(=O)N(C)[C@@H]([C@@H](C)CN2CCN(CCOC)CC2)C(=O)N[C@@H](C(C)C)C(=O)N(C)[C@@H](CC(C)C)C(=O)N[C@@H](C)C(=O)N[C@H](C)C(=O)N(C)[C@@H](CC(C)C)C(=O)N(C)[C@@H](CC(C)C)C(=O)N(C)[C@@H](C(C)C)C(=O)N1C [Compound 2.17.6, 1-dihydro-3-[D-Ala]-4[(2S,3S)-2-Amino-4-[4-(2-methoxy-ethyl)-piperazin-1-yl]-3-methyl-butanoyl]-cyclosporin] (cyclo(A[dA][NMeL][NMeL][NMeV][NMe(dihydroBmt)][Abu][dNMeA][X19]V[NMeL])) | 0.9 | 0.6 | 0.0005 µM | 0.02 µM | 14.6 µM | 3.3 µM | > 50 µM |  |  |  |
| C/C=C/C[C@@H](C)[C@@H](O)[C@H]1C(=O)N[C@@H](CC)C(=O)N(C)[C@H](C)C(=O)N(C)[C@@H]([C@H](C)CCCN2CCOCC2)C(=O)N[C@@H](C(C)C)C(=O)N(C)[C@@H](CC(C)C)C(=O)N[C@@H](C)C(=O)N[C@H](C)C(=O)N(C)[C@@H](CC(C)C)C(=O)N(C)[C@@H](CC(C)C)C(=O)N(C)[C@@H](C(C)C)C(=O)N1C [Compound 2.19.1, 3-[D-Ala]-4-[(2S,3R)-3-methyl-2-(methylamino)-6-morpholinohexanoyl]-cyclosporin] (cyclo([MeBmt][Abu][dNMeA][X20]V[NMeL]A[dA][NMeL][NMeL][NMeV])) | 0.9 | 0.5 | 0.0005 µM |  | 16.6 µM | 6.9 µM |  | 0.038 µM | 17 M⁻¹ s⁻¹ |  |
| C/C=C/C[C@@H](C)[C@@H](O)[C@H]1C(=O)N[C@@H](CC)C(=O)N(C)[C@H](C)C(=O)N(C)[C@@H]([C@@H](C)CN2CCN(C3COC3)CC2)C(=O)N[C@@H](C(C)C)C(=O)N(C)[C@@H](CC(C)C)C(=O)N[C@@H](C)C(=O)N[C@H](C)C(=O)N(C)[C@@H](CC(C)C)C(=O)N(C)[C@@H](CC(C)C)C(=O)N(C)[C@@H](C(C)C)C(=O)N1C [Compound 2.17.5, 3-[D-Ala]-4[(2S,3S)-2-Amino-3-methyl-4-(4-oxetan-3-yl-piperazin-1-yl)-butanoyl]-cyclosporin] (cyclo(A[dA][NMeL][NMeL][NMeV][MeBmt][Abu][dNMeA][X6]V[NMeL])) | 0.7 | 0.5 | 0.0004 µM | 0.033 µM | 35.2 µM | 1.8 µM | > 50 µM |  |  |  |
| C/C=C/C[C@@H](C)[C@@H](O)[C@H]1C(=O)N[C@@H](CC)C(=O)N(C)[C@H](C)C(=O)N(C)[C@@H]([C@H](C)CO)C(=O)N[C@@H](C(C)C)C(=O)N(C)[C@@H](CC(C)C)C(=O)N[C@@H](C)C(=O)N[C@H](C)C(=O)N(C)[C@@H](CC(C)C)C(=O)N(C)[C@@H](CC(C)C)C(=O)N(C)[C@@H](C(C)C)C(=O)N1C [Compound 2.5.1, 3-[D-Ala]-4-[(2S,3S)-4-hydroxy-3-methyl-2-(methylamino)butanoyl]-cyclosporin] (cyclo(A[dA][NMeL][NMeL][NMeV][MeBmt][Abu][dNMeA][X24]V[NMeL])) | 4.8 | 3.5 | 0.0022 µM | 0.4 µM | 6.8 µM | 3.6 µM |  |  |  | No TDI |
| C/C=C/C[C@@H](C)[C@@H](O)[C@H]1C(=O)N[C@@H](CC)C(=O)N(C)[C@H](C)C(=O)N(C)[C@@H]([C@H](C)CO[C@H]2CCOC2)C(=O)N[C@@H](C(C)C)C(=O)N(C)[C@@H](CC(C)C)C(=O)N[C@@H](C)C(=O)N[C@H](C)C(=O)N(C)[C@@H](CC(C)C)C(=O)N(C)[C@@H](CC(C)C)C(=O)N(C)[C@@H](C(C)C)C(=O)N1C (stereo in doubt) [Compound 2.16] | 1.0 | 0.5 | 0.0004 µM |  | 13.7 µM | 1.9 µM | > 50 µM | 0.025 µM |  |  |
| C/C=C/C[C@@H](C)[C@@H](O)[C@H]1C(=O)N[C@@H](CC)C(=O)N(C)[C@H](C)C(=O)N(C)[C@@H]([C@H](C)CC#N)C(=O)N[C@@H](C(C)C)C(=O)N(C)[C@@H](CC(C)C)C(=O)N[C@@H](C)C(=O)N[C@H](C)C(=O)N(C)[C@@H](CC(C)C)C(=O)N(C)[C@@H](CC(C)C)C(=O)N(C)[C@@H](C(C)C)C(=O)N1C [Compound 2.10, 3-[D-Ala]-4-[(2S,3R)-4-cyano-3-methyl-2-(methylamino)butanoyl]-cyclosporin] (cyclo(A[dA][NMeL][NMeL][NMeV][MeBmt][Abu][dNMeA][X13]V[NMeL])) | 1.2 | 0.5 | 0.0005 µM | 0.027 µM | 12.9 µM | 0.9 µM | > 50 µM |  |  |  |
| C/C=C/C[C@@H](C)[C@@H](O)[C@H]1C(=O)N[C@@H](CC)C(=O)N(C)[C@H](C)C(=O)N(C)[C@@H]([C@H](C)COCCN2CCN(C3CCC3)CC2)C(=O)N[C@@H](C(C)C)C(=O)N(C)[C@@H](CC(C)C)C(=O)N[C@@H](C)C(=O)N[C@H](C)C(=O)N(C)[C@@H](CC(C)C)C(=O)N(C)[C@@H](CC(C)C)C(=O)N(C)[C@@H](C(C)C)C(=O)N1C [Compound 2.8.8, 3-[D-Ala]-4-[(2S,3S)-4-(2-(4-cyclobutylpiperazin-1-yl)ethoxy)-3-methyl-2-(methylamino)butanoyl]-cyclosporin] (cyclo(A[dA][NMeL][NMeL][NMeV][MeBmt][Abu][dNMeA][X58]V[NMeL])) | 0.5 | 0.5 | 0.0003 µM | 0.035 µM | 18.9 µM | 3.5 µM |  |  | 12 M⁻¹ s⁻¹ |  |
| C/C=C/C[C@@H](C)[C@@H](O)[C@H]1C(=O)N[C@@H](CC)C(=O)N(C)[C@H](C)C(=O)N(C)[C@@H]([C@@H](C)CN2CCN(C3CCC3)CC2)C(=O)N[C@@H](C(C)C)C(=O)N(C)[C@@H](CC(C)C)C(=O)N[C@@H](C)C(=O)N[C@H](C)C(=O)N(C)[C@@H](CC(C)C)C(=O)N(C)[C@@H](CC(C)C)C(=O)N(C)[C@@H](C(C)C)C(=O)N1C [Compound 2.17.3, 3-[D-Ala]-4[(2S,3S)-2-Amino-4-(4-cyclobutyl-piperazin-1-yl)-3-methyl-butanoyl]-cyclosporin] (cyclo(A[dA][NMeL][NMeL][NMeV][MeBmt][Abu][dNMeA][X12]V[NMeL])) | 0.5 | 0.4 | 0.0003 µM | 0.031 µM | 6.7 µM | 4 µM | > 50 µM |  |  |  |
| C/C=C/C[C@@H](C)[C@@H](O)[C@H]1C(=O)N[C@@H](CC)C(=O)N(C)[C@H](C)C(=O)N(C)[C@@H]([C@H](C)CN2CC(OC)C2)C(=O)N[C@@H](C(C)C)C(=O)N(C)[C@@H](CC(C)C)C(=O)N[C@@H](C)C(=O)N[C@H](C)C(=O)N(C)[C@@H](CC(C)C)C(=O)N(C)[C@@H](CC(C)C)C(=O)N(C)[C@@H](C(C)C)C(=O)N1C [Compound 2.5.17, 3-[D-Ala]-4-[(2S,3R)-4-(3-methoxyazetidin-1-yl)-3-methyl-2-(methylamino)butanoyl]-cyclosporin] (cyclo(A[dA][NMeL][NMeL][NMeV][MeBmt][Abu][dNMeA][X23]V[NMeL])) | 1.9 | 0.9 | 0.001 µM | 0.044 µM | 17.6 µM | 4.2 µM | > 50 µM |  |  |  |
